Results: ChEMBL document CHEMBL4138146, “A Schmidt rearrangement-mediated synthesis of novel tetrahydro-benzo[1,4]diazepin-5-ones as potential anticancer and antiprotozoal agents” (Eur J Med Chem, 2017)

Assays:
Type in all cases: functional
[1] = test system: NCI-H226; experiment: Growth inhibition of human NCI-H226 cells assessed as cell growth at 10^-4 M incubated for 48 hrs by sulforhodamine B assay relative to control; details: NCI-H226, 48 h, read-out: Activity
[2] = test system: MCF7; experiment: Growth inhibition of human MCF7 cells assessed as cell growth at 10^-5 M incubated for 48 hrs by sulforhodamine B assay relative to control; details: MCF7, 48 h, read-out: Activity
[3] = test system: Malme-3M; experiment: Growth inhibition of human MALME-3M cells assessed as cell growth at 10^-4 M incubated for 48 hrs by sulforhodamine B assay relative to control; details: read-out: Activity
[4] = test system: SR; experiment: Growth inhibition of human SR cells assessed as cell growth at 10^-8 M incubated for 48 hrs by sulforhodamine B assay relative to control; details: read-out: Activity
[5] = test system: NCI-H460; experiment: Growth inhibition of human NCI-H460 cells assessed as cell growth at 10^-8 M incubated for 48 hrs by sulforhodamine B assay relative to control; details: NCI-H460, 48 h, read-out: Activity
[6] = test system: HOP-92; experiment: Growth inhibition of human HOP92 cells assessed as cell growth at 10^-6 M incubated for 48 hrs by sulforhodamine B assay relative to control; details: HOP-92, 48 h, read-out: Activity
[7] = test system: CCRF-CEM; experiment: Growth inhibition of human CCRF-CEM cells assessed as cell growth at 10^-5 M incubated for 48 hrs by sulforhodamine B assay relative to control; details: read-out: Activity
[8] = test system: 786-0; experiment: Growth inhibition of human 786-0 cells assessed as cell growth at 10^-5 M incubated for 48 hrs by sulforhodamine B assay relative to control; details: 786-0, 48 h, read-out: Activity
[9] = test system: OVCAR-8; experiment: Growth inhibition of human OVCAR8 cells assessed as cell growth at 10^-6 M incubated for 48 hrs by sulforhodamine B assay relative to control; details: OVCAR-8, 48 h, read-out: Activity
[10] = test system: HL-60(TB); experiment: Growth inhibition of human HL-60(TB) cells assessed as cell growth at 10^-8 M incubated for 48 hrs by sulforhodamine B assay relative to control; details: HL-60, 48 h, read-out: Activity
[11] = test system: HCT-116; experiment: Growth inhibition of human HCT116 cells assessed as cell growth at 10^-6 M incubated for 48 hrs by sulforhodamine B assay relative to control; details: HCT-116, 48 h, read-out: Activity
[12] = test system: Hs-578T; experiment: Growth inhibition of human Hs 578T cells assessed as cell growth at 10^-6 M incubated for 48 hrs by sulforhodamine B assay relative to control; details: read-out: Activity
[13] = test system: MDA-MB-468; experiment: Growth inhibition of human MDA-MB-468 cells assessed as cell growth at 10^-6 M incubated for 48 hrs by sulforhodamine B assay relative to control; details: MDA-MB-468, 48 h, read-out: Activity
[14] = test system: MDA-MB-231; experiment: Growth inhibition of human MDA-MB-231 cells assessed as cell growth at 10^-5 M incubated for 48 hrs by sulforhodamine B assay relative to control; details: MDA-MB-231, 48 h, read-out: Activity
[15] = test system: LOX IMVI; experiment: Growth inhibition of human LOXIMVI cells assessed as cell growth at 10^-6 M incubated for 48 hrs by sulforhodamine B assay relative to control; details: read-out: Activity
[16] = test system: HT-29; experiment: Growth inhibition of human HT-29 cells assessed as cell growth at 10^-7 M incubated for 48 hrs by sulforhodamine B assay relative to control; details: HT-29, 48 h, read-out: Activity
[17] = test system: SK-MEL-28; experiment: Growth inhibition of human SK-MEL-28 cells assessed as cell growth at 10^-5 M incubated for 48 hrs by sulforhodamine B assay relative to control; details: SK-MEL-28, 48 h, read-out: Activity
[18] = test system: M14; experiment: Growth inhibition of human M14 cells assessed as cell growth at 10^-6 M incubated for 48 hrs by sulforhodamine B assay relative to control; details: M14, 48 h, read-out: Activity
[19] = test system: SF-539; experiment: Growth inhibition of human SF539 cells assessed as cell growth at 10^-4 M incubated for 48 hrs by sulforhodamine B assay relative to control; details: SF-539, 48 h, read-out: Activity
[20] = test system: M14; experiment: Growth inhibition of human M14 cells assessed as cell growth at 10^-8 M incubated for 48 hrs by sulforhodamine B assay relative to control; details: M14, 48 h, read-out: Activity
[21] = test system: SK-MEL-2; experiment: Growth inhibition of human SK-MEL-2 cells assessed as cell growth at 10^-4 M incubated for 48 hrs by sulforhodamine B assay relative to control; details: SK-MEL-2, 48 h, read-out: Activity
[22] = test system: T47D; experiment: Growth inhibition of human T47D cells assessed as cell growth at 10^-7 M incubated for 48 hrs by sulforhodamine B assay relative to control; details: read-out: Activity
[23] = test system: UACC-257; experiment: Growth inhibition of human UACC257 cells assessed as cell growth at 10^-7 M incubated for 48 hrs by sulforhodamine B assay relative to control; details: UACC-257, 48 h, read-out: Activity
[24] = test system: IGROV-1; experiment: Growth inhibition of human IGROV1 cells assessed as cell growth at 10^-5 M incubated for 48 hrs by sulforhodamine B assay relative to control; details: IGROV-1, 48 h, read-out: Activity
[25] = test system: KM12; experiment: Growth inhibition of human KM12 cells assessed as cell growth at 10^-4 M incubated for 48 hrs by sulforhodamine B assay relative to control; details: KM12, 48 h, read-out: Activity
[26] = test system: HCT-116; experiment: Growth inhibition of human HCT116 cells assessed as cell growth at 10^-8 M incubated for 48 hrs by sulforhodamine B assay relative to control; details: HCT-116, 48 h, read-out: Activity
[27] = test system: SF-295; experiment: Growth inhibition of human SF295 cells assessed as cell growth at 10^-8 M incubated for 48 hrs by sulforhodamine B assay relative to control; details: SF-295, 48 h, read-out: Activity
[28] = test system: MDA-MB-435; experiment: Growth inhibition of human MDA-MB-435 cells assessed as cell growth at 10^-5 M incubated for 48 hrs by sulforhodamine B assay relative to control; details: MDA-MB-435, 48 h, read-out: Activity
[29] = test system: CCRF-CEM; experiment: Growth inhibition of human CCRF-CEM cells assessed as cell growth at 10^-4 M incubated for 48 hrs by sulforhodamine B assay relative to control; details: read-out: Activity
[30] = test system: OVCAR-5; experiment: Growth inhibition of human OVCAR5 cells assessed as cell growth at 10^-6 M incubated for 48 hrs by sulforhodamine B assay relative to control; details: OVCAR-5, 48 h, read-out: Activity
[31] = test system: HOP-92; experiment: Growth inhibition of human HOP92 cells assessed as cell growth at 10^-8 M incubated for 48 hrs by sulforhodamine B assay relative to control; details: HOP-92, 48 h, read-out: Activity
[32] = test system: HCC 2998; experiment: Growth inhibition of human HCC2998 cells assessed as cell growth at 10^-4 M incubated for 48 hrs by sulforhodamine B assay relative to control; details: HCC 2998, 48 h, read-out: Activity
[33] = test system: NCI-H460; experiment: Growth inhibition of human NCI-H460 cells assessed as cell growth at 10^-5 M incubated for 48 hrs by sulforhodamine B assay relative to control; details: NCI-H460, 48 h, read-out: Activity
[34] = test system: OVCAR-8; experiment: Growth inhibition of human OVCAR8 cells assessed as cell growth at 10^-8 M incubated for 48 hrs by sulforhodamine B assay relative to control; details: OVCAR-8, 48 h, read-out: Activity

## CCCCOc1nc2ccccc2cc1C1CNC(=O)c2ccccc2N1 (centres undefined)
[1]
  growth at 100 µM: -32%
[2]
  growth at 10 µM: 11%
[3]
  growth at 100 µM: -53%
[4]
  growth at 0.01 µM: 86%
[5]
  growth at 0.01 µM: 101%
[6]
  growth at 1 µM: 62%
[7]
  growth at 10 µM: 11%
[8]
  growth at 10 µM: 1%
[9]
  growth at 1 µM: 94%
[10]
  growth at 0.01 µM: 98%
[11]
  growth at 1 µM: 75%
[12]
  growth at 1 µM: 73%
[13]
  growth at 1 µM: 66%
[14]
  growth at 10 µM: 25%
[15]
  growth at 1 µM: 80%
[16]
  growth at 0.1 µM: 98%
[17]
  growth at 10 µM: 44%
[18]
  growth at 1 µM: 61%
[19]
  growth at 100 µM: -70%
[20]
  growth at 0.01 µM: 96%
[21]
  growth at 100 µM: -15%
[22]
  growth at 0.1 µM: 99%
[23]
  growth at 0.1 µM: 92%
[24]
  growth at 10 µM: 31%
[25]
  growth at 100 µM: -2%
[26]
  growth at 0.01 µM: 101%
[27]
  growth at 0.01 µM: 84%
[28]
  growth at 10 µM: -58%
[29]
  growth at 100 µM: -17%
[30]
  growth at 1 µM: 98%
[31]
  growth at 0.01 µM: 76%
[32]
  growth at 100 µM: -20%
[33]
  growth at 10 µM: 5%
[34]
  growth at 0.01 µM: 100%
